The text below walks through data of ChEMBL document CHEMBL1126316, “Non-peptide fibrinogen receptor antagonists. 1. Discovery and design of exosite inhibitors” (J Med Chem, 1992).

In experiment [1] the target is T1, Integrin alpha-V/beta-3 (Homo sapiens, UniProt P05106+P06756). The experiment in a line: Inhibition of HUVEC attachment to human fibrinogen.
A further experiment deals with Integrin alpha-5/beta-1 (Homo sapiens, UniProt P05556+P08648). The experiment in a line: Inhibition of HUVEC attachment to human fibronectin.
Chain of Integrin alpha-5/beta-1 (P05556 21-798 limits assumed): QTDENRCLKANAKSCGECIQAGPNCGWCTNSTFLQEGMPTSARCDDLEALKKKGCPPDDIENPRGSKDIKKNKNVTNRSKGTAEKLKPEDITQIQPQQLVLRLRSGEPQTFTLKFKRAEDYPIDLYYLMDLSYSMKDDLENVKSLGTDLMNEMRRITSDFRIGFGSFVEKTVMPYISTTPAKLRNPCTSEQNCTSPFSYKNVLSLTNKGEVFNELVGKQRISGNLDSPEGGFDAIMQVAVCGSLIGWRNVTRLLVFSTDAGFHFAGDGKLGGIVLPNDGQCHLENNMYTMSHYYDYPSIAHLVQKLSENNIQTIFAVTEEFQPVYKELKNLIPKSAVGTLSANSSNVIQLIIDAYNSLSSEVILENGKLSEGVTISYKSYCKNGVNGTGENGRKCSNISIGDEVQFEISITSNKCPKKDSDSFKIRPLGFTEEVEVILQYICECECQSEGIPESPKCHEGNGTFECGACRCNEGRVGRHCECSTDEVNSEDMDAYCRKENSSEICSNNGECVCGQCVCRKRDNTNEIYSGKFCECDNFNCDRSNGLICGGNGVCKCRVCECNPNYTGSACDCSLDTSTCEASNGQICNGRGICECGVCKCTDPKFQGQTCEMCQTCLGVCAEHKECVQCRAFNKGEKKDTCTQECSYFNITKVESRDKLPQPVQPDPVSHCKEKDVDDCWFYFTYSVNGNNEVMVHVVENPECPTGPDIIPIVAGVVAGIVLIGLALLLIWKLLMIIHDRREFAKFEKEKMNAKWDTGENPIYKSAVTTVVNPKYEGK
Chain of Integrin alpha-5/beta-1 (P08648 42-894 limits assumed): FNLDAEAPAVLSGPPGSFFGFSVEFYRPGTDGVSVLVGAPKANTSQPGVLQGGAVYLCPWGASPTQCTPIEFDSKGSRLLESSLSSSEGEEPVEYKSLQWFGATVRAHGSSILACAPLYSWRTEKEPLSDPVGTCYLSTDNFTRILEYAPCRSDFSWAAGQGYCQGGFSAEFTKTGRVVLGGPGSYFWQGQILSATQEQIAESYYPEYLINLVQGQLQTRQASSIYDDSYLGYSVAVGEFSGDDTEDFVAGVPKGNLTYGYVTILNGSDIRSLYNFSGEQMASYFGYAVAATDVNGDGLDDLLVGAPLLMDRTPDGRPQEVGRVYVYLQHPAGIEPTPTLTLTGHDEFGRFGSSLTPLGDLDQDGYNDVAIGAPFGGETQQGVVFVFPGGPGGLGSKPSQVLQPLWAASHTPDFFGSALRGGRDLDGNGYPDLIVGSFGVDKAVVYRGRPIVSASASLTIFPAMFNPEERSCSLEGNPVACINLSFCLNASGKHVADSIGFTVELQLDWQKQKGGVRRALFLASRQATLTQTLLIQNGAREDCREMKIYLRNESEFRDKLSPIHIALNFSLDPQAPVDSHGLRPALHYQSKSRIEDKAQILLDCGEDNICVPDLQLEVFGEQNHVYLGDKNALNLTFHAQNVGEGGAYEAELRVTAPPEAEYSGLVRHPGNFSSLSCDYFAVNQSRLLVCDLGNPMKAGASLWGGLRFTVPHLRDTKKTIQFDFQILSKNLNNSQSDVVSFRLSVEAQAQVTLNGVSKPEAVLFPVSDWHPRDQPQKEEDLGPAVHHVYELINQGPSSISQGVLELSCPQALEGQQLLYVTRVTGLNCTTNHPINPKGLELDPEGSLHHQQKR
Chain of Integrin alpha-5/beta-1 (P08648 895-1049 limits assumed): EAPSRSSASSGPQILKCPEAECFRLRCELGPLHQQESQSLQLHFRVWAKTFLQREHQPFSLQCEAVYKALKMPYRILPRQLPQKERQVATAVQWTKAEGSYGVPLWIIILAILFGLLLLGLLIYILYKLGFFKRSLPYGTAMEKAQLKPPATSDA
Experiment [2] concerns the target T1, Integrin alpha-V/beta-3. The experiment in a line: Inhibition of HUVEC attachment to human vitronectin.

The structures appear in SMILES notation.

T1 sequence (P05106 27-788 limits assumed): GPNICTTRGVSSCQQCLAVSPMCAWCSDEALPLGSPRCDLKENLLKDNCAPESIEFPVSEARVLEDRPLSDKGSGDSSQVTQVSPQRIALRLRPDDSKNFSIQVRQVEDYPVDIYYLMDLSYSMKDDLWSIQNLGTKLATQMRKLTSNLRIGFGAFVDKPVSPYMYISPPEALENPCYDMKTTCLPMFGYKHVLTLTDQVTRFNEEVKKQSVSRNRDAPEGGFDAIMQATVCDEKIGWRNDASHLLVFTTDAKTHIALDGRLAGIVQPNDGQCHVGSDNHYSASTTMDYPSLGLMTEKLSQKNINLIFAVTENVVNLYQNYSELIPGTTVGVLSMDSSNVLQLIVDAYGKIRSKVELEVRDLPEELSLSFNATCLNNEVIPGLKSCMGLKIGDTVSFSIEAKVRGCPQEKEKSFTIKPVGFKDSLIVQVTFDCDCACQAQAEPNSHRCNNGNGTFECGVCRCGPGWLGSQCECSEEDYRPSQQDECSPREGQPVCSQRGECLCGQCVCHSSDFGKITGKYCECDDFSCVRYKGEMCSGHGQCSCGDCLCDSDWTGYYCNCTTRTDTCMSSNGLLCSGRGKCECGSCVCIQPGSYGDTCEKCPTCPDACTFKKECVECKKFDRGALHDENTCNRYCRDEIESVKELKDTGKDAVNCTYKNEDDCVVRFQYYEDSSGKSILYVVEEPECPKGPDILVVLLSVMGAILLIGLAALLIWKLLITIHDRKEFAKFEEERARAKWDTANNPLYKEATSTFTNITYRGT
T1 sequence (P06756 31-889 limits assumed): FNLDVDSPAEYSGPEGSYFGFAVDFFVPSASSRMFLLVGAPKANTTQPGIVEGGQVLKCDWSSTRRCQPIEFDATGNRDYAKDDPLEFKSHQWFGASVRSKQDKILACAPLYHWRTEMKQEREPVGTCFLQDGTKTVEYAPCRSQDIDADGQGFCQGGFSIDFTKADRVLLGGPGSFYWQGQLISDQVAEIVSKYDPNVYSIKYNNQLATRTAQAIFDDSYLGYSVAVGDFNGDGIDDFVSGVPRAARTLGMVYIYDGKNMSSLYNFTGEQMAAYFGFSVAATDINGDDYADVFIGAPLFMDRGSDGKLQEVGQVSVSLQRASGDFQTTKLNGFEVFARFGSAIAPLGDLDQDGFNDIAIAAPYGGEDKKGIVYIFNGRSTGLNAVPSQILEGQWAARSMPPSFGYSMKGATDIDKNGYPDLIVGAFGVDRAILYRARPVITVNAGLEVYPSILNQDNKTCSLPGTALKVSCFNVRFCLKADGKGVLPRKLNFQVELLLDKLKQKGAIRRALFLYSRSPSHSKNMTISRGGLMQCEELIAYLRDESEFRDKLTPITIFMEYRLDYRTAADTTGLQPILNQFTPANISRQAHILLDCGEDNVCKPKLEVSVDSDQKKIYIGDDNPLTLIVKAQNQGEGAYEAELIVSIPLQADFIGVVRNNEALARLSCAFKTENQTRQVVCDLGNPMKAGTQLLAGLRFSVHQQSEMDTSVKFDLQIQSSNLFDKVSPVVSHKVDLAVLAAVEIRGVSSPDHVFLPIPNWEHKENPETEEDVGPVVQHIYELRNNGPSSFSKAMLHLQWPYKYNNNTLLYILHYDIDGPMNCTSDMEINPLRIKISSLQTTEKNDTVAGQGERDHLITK
T1 sequence (P06756 891-1048 limits assumed): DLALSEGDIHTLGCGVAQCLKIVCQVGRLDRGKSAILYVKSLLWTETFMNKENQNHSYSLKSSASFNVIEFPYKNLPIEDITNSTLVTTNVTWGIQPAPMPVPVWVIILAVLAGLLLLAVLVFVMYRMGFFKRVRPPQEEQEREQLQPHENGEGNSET

As to `CCCCS(=O)(=O)N[C@@H](Cc1ccc(OCCCCC2CCNCC2)cc1)C(=O)O` [TIROFIBAN], the figures for the IC50 at Integrin alpha-V/beta-3 [1], at Integrin alpha-5/beta-1 and against Integrin alpha-V/beta-3 [2] were 260 µM, more than 300 µM and 100 µM, respectively.
